System: HCV
Assay: Inhibition of HCV infection of cultured human hepatocytes (quantitative RT-PCR of HCV RNA)
Type: cell-based
Details: cultured human hepatocytes infected with infectious human serum; fenofibric acid tested at 50 μM and 500 μM; HCV RNA copies/350,000 cells four days after infection; 0.5% DMSO
Method: Isolated human hepatocytes from surgical liver resection were seeded in 24 well microplates at the density of 3×10^5 cells/well. Cells were allowed to attach and recover 24 hours and then medium was replaced with a fresh one containing different concentrations of fenofibric acid (50 μM and 500 μM). Hepatocytes were incubated 24 hours with the indicated amounts of fenofibric acid, then medium was replaced with fresh one containing the same amounts of fenofibric acid and a fixed amount (100 μl) of an infectious human serum from a patient chronically infected with HCV. Cells were incubated 18 hours with the virus to allow infection, then washed and incubated for four days. Total RNA was extracted and viral replication was measured by quantitative RT-PCR.
Typically, 10^4 to 10^5 copies of genomes per well are detected after four days from infection. To be sure that the measured viral RNA derived from active replication, a small molecule inhibitor of the viral replicase was included as a positive control.
Viral replication was measured on total RNA by quantitative PCR and expressed as number of HCV copies/350,000 cells. The experiment was performed in triplicate wells and values are shown with standard deviations. Fenofibric acid was dissolved in DMSO and tested at 50 μM and 500 μM. […]

## CC(C)(Oc1ccc(C(=O)c2ccc(Cl)cc2)cc1)C(=O)O [fenofibric acid]
  reduction of HCV infectivity: up to 90%

Reference: patent US20070259959A1, “Ppar Agonists for the Treatment of Hcv Infection” (priority 2003, published 2007)
